Peptide text beside a SMILES is read from it.
Columns and labels:
Test in all cases: Fluorescence polarization SH3 domain-PRP binding
[1] = target: T1, ITSN1-4 SH3 domain (aa 1070-1138) (Homo sapiens, UniProt Q15811); conditions: FP, 0.2 µM fluorescein-labeled peptide, SH3 domain 0-200 µM, Tris/HCl pH 7.5, 25 °C, quadratic fit
T1 construct: 1070-1138; GST (N); made in house; host or cells: Escherichia coli CodonPlus, Rosetta, BL21(DE3)
T1 sequence (Q15811 1070-1138): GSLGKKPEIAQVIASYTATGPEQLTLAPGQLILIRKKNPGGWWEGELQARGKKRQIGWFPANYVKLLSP
Description: (§1) The interaction between fluorescein-labeled proline-rich peptides (0.2 µM) and increasing concentrations of SH3 domains (ranging from 0 to 200 µM) was measured in a buffer (containing 30 mM Tris/HCl (pH 7.5), 5 mM MgCl2, and 3 mM DTT at 25 °C) in a total volume of 200 µL using a Fluoromax 4 fluorimeter in polarization mode and a quartz glass fluorescence cuvette (Hellma Ultra-Micro Cuvette 105.250-QS, Thermo Fisher Scientific, Waltham, MA USA). Excitation was performed at 470 nm and emission was measured at 560 nm. Dissociation constants (Kd) were determined by fitting the concentration-dependent binding curve to a quadratic ligand binding equation.
(§2) Fluorescence polarization measurements were performed to determine the binding affinities of SH3 domain–PRP interaction pairs from the dot blot analysis. SH3 proteins were titrated at increasing concentrations against fluorescent PRPs, which were kept at a constant concentration of 0.2 µM. GRB2-2^W193K, which is defective in the binding of PRPs such as RP1, was used as a negative control as previously described. […] The resulting data (Figure S6) allowed the evaluation of equilibrium dissociation constants (Kd) for 45 interactions between the SH3 domains and the PRPs (Figure 2B; Table S6).
(§3) Figure S6. Interactions of the SH3 domains with fluorescent PRPs measured by fluorescence polarization.
(§4) Fluorescent peptides (0.2 µM) were titrated with increasing concentrations of the corresponding SH3 domains.
(§5) GRB2-2W193K, defective in the binding of PRPs such as RP1, was used as a negative control as previously described. The x-axis represents SH3 domain concentrations as GST fusion proteins in µM, while the y-axis represents fluorescence polarization. The equilibrium dissociation constants (Kd) for the respective measurements were determined by fitting the titration curves to a quadratic ligand-binding equation (solid lines). All Kd values are […]
(§6) Error bars are derived from the fitting errors.

[2] = target: T2, SRC SH3 domain (aa 77-140) (Homo sapiens, UniProt P12931); conditions: FP, 0.2 µM fluorescein-labeled peptide, SH3 domain 0-200 µM, Tris/HCl pH 7.5, 25 °C, quadratic fit
T2 construct: 77-140; GST (N); made in house; host or cells: Escherichia coli CodonPlus, Rosetta, BL21(DE3)
T2 sequence (P12931 77-140 limits assumed): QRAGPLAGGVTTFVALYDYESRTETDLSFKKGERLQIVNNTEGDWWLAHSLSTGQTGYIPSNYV
Description: as §1, §2, §3, §4, §5, §6

[3] = target: T3, SH3PXD2A-1 SH3 domain (aa 166-225) (Homo sapiens, UniProt Q5TCZ1); conditions: FP, 0.2 µM fluorescein-labeled peptide, SH3 domain 0-200 µM, Tris/HCl pH 7.5, 25 °C, quadratic fit
T3 construct: 166-225; GST (N); made in house; host or cells: Escherichia coli CodonPlus, Rosetta, BL21(DE3)
T3 sequence (Q5TCZ1 166-225): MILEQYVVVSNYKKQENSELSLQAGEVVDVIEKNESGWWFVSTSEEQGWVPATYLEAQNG
Description: as §1, §2, §3, §4, §5, §6

[4] = target: T4, NCK1-2 SH3 domain (aa 106-165) (Homo sapiens, UniProt P16333); conditions: FP, 0.2 µM fluorescein-labeled peptide, SH3 domain 0-200 µM, Tris/HCl pH 7.5, 25 °C, quadratic fit, read-out: Kd
T4 construct: 106-165; GST (N); made in house; host or cells: Escherichia coli CodonPlus, Rosetta, BL21(DE3)
Description: as §1, §2, §3, §4, §5, §6

[5] = target: T5, RIMBP3B-1 SH3 domain (aa 832-899) (Homo sapiens, UniProt A6NNM3); conditions: FP, 0.2 µM fluorescein-labeled peptide, SH3 domain 0-200 µM, Tris/HCl pH 7.5, 25 °C, quadratic fit
T5 construct: 832-899; GST (N); made in house; host or cells: Escherichia coli CodonPlus, Rosetta, BL21(DE3)
T5 sequence (A6NNM3 832-899): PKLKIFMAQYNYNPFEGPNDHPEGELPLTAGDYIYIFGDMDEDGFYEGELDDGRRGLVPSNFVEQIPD
Description: as §1, §2, §3, §4, §5, §6

[6] = target: T6, SH3GLB1 SH3 domain (aa 305-365) (Homo sapiens, UniProt Q9Y371); conditions: FP, 0.2 µM fluorescein-labeled peptide, SH3 domain 0-200 µM, Tris/HCl pH 7.5, 25 °C, quadratic fit
T6 construct: 305-365; GST (N); made in house; host or cells: Escherichia coli CodonPlus, Rosetta, BL21(DE3)
T6 sequence (Q9Y371 305-365): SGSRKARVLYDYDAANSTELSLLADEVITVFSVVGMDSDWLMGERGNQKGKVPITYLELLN
Description: as §1, §2, §3, §4, §5, §6

NPHP1 SH3 domain = target: T7, NPHP1 SH3 domain (Homo sapiens, UniProt O15259); conditions: FP, 0.2 µM fluorescein-labeled peptide, SH3 domain 0-200 µM, Tris/HCl pH 7.5, 25 °C, quadratic fit
T7 construct: GST (N); made in house; host or cells: Escherichia coli CodonPlus, Rosetta, BL21(DE3)
T7 sequence (O15259 152-212 limits assumed): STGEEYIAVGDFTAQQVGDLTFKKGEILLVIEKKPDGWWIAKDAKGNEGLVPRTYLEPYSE
Description: as §1, §2, §3, §4, §5, §6

[7] = target: T8, NCK1-1 SH3 domain (aa 2-61) (Homo sapiens, UniProt P16333); conditions: FP, 0.2 µM fluorescein-labeled peptide, SH3 domain 0-200 µM, Tris/HCl pH 7.5, 25 °C, quadratic fit, read-out: Kd
T8 construct: 2-61; GST (N); made in house; host or cells: Escherichia coli CodonPlus, Rosetta, BL21(DE3)
Description: as §1, §2, §3, §4, §5, §6

[8] = target: T9, NCK1-3 SH3 domain (aa 190–252) (Homo sapiens, UniProt P16333); conditions: NCK1-3 (wt); FP, 0.2 µM fluorescein-labeled peptide, SH3 domain 0-200 µM, Tris/HCl pH 7.5, 25 °C, quadratic fit; read-out: Kd
T9 construct: 190–252; GST (N); made in house; host or cells: Escherichia coli CodonPlus, Rosetta, BL21(DE3)
Description: as §1, §2, §3, §4, §5, §6

[9] = target: T10, RASA1 SH3 domain (aa 279–341) (Homo sapiens, UniProt P20936); conditions: FP, 0.2 µM fluorescein-labeled peptide, SH3 domain 0-200 µM, Tris/HCl pH 7.5, 25 °C, quadratic fit
T10 construct: 279–341; GST (N); made in house; host or cells: Escherichia coli CodonPlus, Rosetta, BL21(DE3)
T10 sequence (P20936 279-341): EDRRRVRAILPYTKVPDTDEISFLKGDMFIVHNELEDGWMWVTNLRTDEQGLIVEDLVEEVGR
Description: as §1, §2, §3, §4, §5, §6

[10] = target: T11, SORBS1-1 SH3 domain (aa 793-852) (Homo sapiens, UniProt Q9BX66); conditions: FP, 0.2 µM fluorescein-labeled peptide, SH3 domain 0-200 µM, Tris/HCl pH 7.5, 25 °C, quadratic fit
T11 construct: 793-852; GST (N); made in house; host or cells: Escherichia coli CodonPlus, Rosetta, BL21(DE3)
T11 sequence (Q9BX66 793-852): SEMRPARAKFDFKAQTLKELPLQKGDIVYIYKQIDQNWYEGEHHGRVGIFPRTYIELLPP
Description: as §1, §2, §3, §4, §5, §6

[11] = target: T12, SNX9 SH3 domain (aa 1-62) (Homo sapiens, UniProt Q9Y5X1); conditions: FP, 0.2 µM fluorescein-labeled peptide, SH3 domain 0-200 µM, Tris/HCl pH 7.5, 25 °C, quadratic fit
T12 construct: 1-62; GST (N); made in house; host or cells: Escherichia coli CodonPlus, Rosetta, BL21(DE3)
T12 sequence (Q9Y5X1 1-62): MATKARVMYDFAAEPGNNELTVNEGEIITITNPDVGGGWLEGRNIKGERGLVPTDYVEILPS
Description: as §1, §2, §3, §4, §5, §6

| SMILES | Kd [1] | Kd [2] | Kd [3] | Kd [4] | Kd [5] | Kd [6] | Kd (NPHP1 SH3 domain) | Kd [7] | Kd [8] | Kd [9] | Kd [10] | Kd [11] |
| --- | --- | --- | --- | --- | --- | --- | --- | --- | --- | --- | --- | --- |
| CC[C@H](C)[C@H](N)C(=O)N[C@@H](CO)C(=O)N[C@@H](CC(=O)O)C(=O)N1CCC[C@H]1C(=O)N1CCC[C@H]1C(=O)N[C@@H](CCC(=O)O)C(=O)N[C@@H](CO)C(=O)N1CCC[C@H]1C(=O)N1CCC[C@H]1C(=O)N[C@@H](CC(C)C)C(=O)N[C@@H](CC(C)C)C(=O)N1CCC[C@H]1C(=O)N1CCC[C@H]1C(=O)N[C@@H](CCCNC(=N)N)C(=O)N[C@@H](CCC(=O)O)C(=O)N1CCC[C@H]1C(=O)N[C@H](C(=O)N[C@@H](CCCNC(=N)N)C(=O)N[C@H](C(=O)N1CCC[C@H]1C(=O)N[C@@H](CC(=O)O)C(=O)N[C@H](C(=O)O)C(C)C)[C@@H](C)O)C(C)C [Peptide P5] (H-ISDPPESPPLLPPREPVRTPDV-OH) | > 200 µM | > 200 µM | > 200 µM | > 200 µM | > 200 µM | > 200 µM | > 200 µM | > 200 µM | > 200 µM | > 200 µM | > 200 µM | > 200 µM |
| CC(C)[C@H](NC(=O)[C@@H]1CCCN1C(=O)[C@@H]1CCCN1C(=O)[C@H](C)NC(=O)[C@H](CCC(=O)O)NC(=O)[C@H](CS)NC(=O)[C@@H](N)CCCNC(=N)N)C(=O)N1CCC[C@H]1C(=O)N1CCC[C@H]1C(=O)N[C@@H](CCCNC(=N)N)C(=O)N[C@@H](CCCNC(=N)N)C(=O)N[C@@H](CCC(=O)O)C(=O)N[C@@H](CCCNC(=N)N)C(=O)NCC(=O)O [RP2, reference compound] (H-RCEAPPVPPRRERG-OH) | > 200 µM | > 200 µM | 21 µM | 1 µM | > 200 µM | > 200 µM | > 200 µM | > 200 µM | 2.5 µM | > 200 µM | > 200 µM | > 200 µM |
| CC(C)C[C@H](NC(=O)[C@H](Cc1c[nH]cn1)NC(=O)[C@H](CC(C)C)NC(=O)[C@@H]1CCCN1C(=O)[C@H](CO)NC(=O)[C@H](CO)NC(=O)[C@@H](N)CO)C(=O)N[C@@H](CCC(N)=O)C(=O)N1CCC[C@H]1C(=O)N1CCC[C@H]1C(=O)N1CCC[C@H]1C(=O)N[C@@H](CC(C)C)C(=O)NCC(=O)N[C@@H](CCCCN)C(=O)N[C@@H](CCCCN)C(=O)O [Peptide P6] (H-SSSPLHLQPPPLGKK-OH; N-terminus and C-terminus assumed) | > 200 µM | > 200 µM | > 200 µM | > 200 µM | > 200 µM | > 200 µM | > 200 µM | > 200 µM | > 200 µM | > 200 µM | > 200 µM | > 200 µM |
